These are literature values, as cited in patent EP4763224A1, “ANTICANCER AGENT CONTAINING NKT CELL LIGAND-CONTAINING LIPOSOME COMPOSITION” (RIKEN, priority 2023, dated 2025).

This series deals with NKT cells. The note with it: for activity relative to α-galactosylceramide: Patent Documents 1 to 5 and Non-Patent Document 10.

Turning to `CCCCCCCCCCCCCCCCCCCCCCCCCC(=O)N[C@@H](CO[C@H]1O[C@H](COC(=O)NO)[C@H](O)[C@H](O)[C@H]1O)[C@H](O)[C@H](O)CCCCCCCCCCCCCC` [RCAI-137], the “activity relative to α-galactosylceramide” value is “several tens times higher”.

On to `CCCCCCCCCCCCCCCCCCCCCCCCCC(=O)N[C@@H](CO[C@H]1O[C@H](CO)[C@H](O)[C@H](O)[C@H]1O)[C@H](O)[C@H](O)CCCCCCCCCCCCCC` [α-Galactosylceramide, reference compound], for which the “artificial activation of NKT cells” value (Non-Patent Document 9) was “strongly induce artificial activation of NKT cells”.

For `CCCCCCCCCCCCCCCCCCCCCCCCCC(=O)N[C@@H](CO[C@H]1O[C@H](COC(=O)NC)[C@H](O)[C@H](O)[C@H]1O)[C@H](O)[C@H](O)CCCCCCCCCCCCCC` [RK-163], the “activity relative to α-galactosylceramide” value was “several tens times higher”.

In the case of `CCCCCCCCCCCCCCCCCCCCCCCCCC(=O)N[C@@H](CO[C@H]1O[C@H](COC)[C@H](O)[C@H](O)[C@H]1O)[C@H](O)[C@H](O)CCCCCCCCCCCCCC` [RCAI-61], the “activity relative to α-galactosylceramide” value is given as “several tens times higher”.
